{"source": "patent US7090853B2", "about": "“Noscapine derivatives as adjuvant compositions and methods of use thereof” (Emory University, priority 1999, dated 2006)", "key": {"E.G7-OVA tumor cells": {"system": "E.G7-OVA tumor cells", "test": "Survival and tumor regression of E.G7-OVA tumor-bearing mice, noscapine in drinking water", "assay_type": "in vivo, C57BL/6 mice", "description": "C57BL/6 mice were injected s.c. with 2×10^6 E.G7-OVA tumor cells. Three days later, two groups received the indicated dose of noscapine in their drinking water. There were 5 mice/group. Untreated mice survived from 6 to 7 weeks after tumor inoculation. In marked contrast, the majority of the mice treated with 1.5 or 3.0 mg/ml Noscapine survived for greater than 16 weeks when the experiment was terminated.\nFIGS. 3A–3I show B6 mice were injected subcutaneously with 2×10^6 E.G7-OVA tumor cells and after three days half of the mice were treated continuously with 1.5 or 3.0 mg noscapine/ml of drinking water. All of the untreated mice developed tumors and were euthanized after three weeks. […] Normal B6 mice (A–C) and mice treated for 3 months with noscapine (D–F) were euthanized.\nTo test whether E.G7-OVA tumor induced tolerance, tumors were ablated by treating the mice with noscapine in the drinking water beginning three days after tumor transplantation. Tumors grew in all mice that had received E.G7-OVA without noscapine."}, "EL4 thymocytes": {"system": "EL4 thymocytes", "test": "M phase arrest, alpha-tubulin immunofluorescence and flow cytometry", "assay_type": "cell-based", "conditions": "thymocyte cells, 20 μM Noscapine, 24 hr", "description": "Hela cells were grown in DMEM supplemented with 10% fetal calf serum, 1 mM L-glutamine and 1% penicillin/−streptomycin. The tumor cell line E.G7-OVA (H-2^b) [Moore, M. W., et al., Cell 54,777 (1988)] was grown in RPMI 1640 with 10% fetal calf serum, 1% sodium pyruvate, 1 mM L-glutamine, 0.1% gentamycin, 50 μM β-mercaptoethanol. Cells were grown at 37° C. in a 5% CO2 atmosphere. Cell viability was assessed by trypan blue exclusion analysis. Cell numbers were determined using a hemacytometer. C57BL/6(H-2^b) mice, 8 to 12 weeks of age, were obtained from Harian Sprague Dawley, Inc. (Indiananapolis, Ind.). Mice were maintained on standard laboratory chow and water ad libitum in a temperature and light controlled environment. For immunofluorescence, both Hela and thymocyte cells were treated identically except the Hela cells were grown onto glass coverslips while EL4 thymocytes were put on glass coverslips after fixation. Cells in 10 ml medium were incubated with 2 μl DMSO or 20 μM Noscapine (2 μl 0.1 M DMSO solution) respectively. After 24 hr, cells were fixed with cold (−20° C.) methanol for 5 min., then rehydrated by PBS for 1 min. Nonspecific sites were blocked by incubating with 200 μl of 1% bovine serum albumin (BSA) in phosphate buffered saline (PBS) at 37° C. for 15 minutes. […] Cells were examined with a fluorescence microscope. […] The samples were read on a cytometer."}}, "note": "Entries after “also recorded” stand apart in the source; their conditions may differ."}
{"smiles": "COc1ccc2c(c1OC)C(=O)O[C@@H]2[C@H]1c2c(cc3c(c2OC)OCO3)CCN1C", "note": "[Noscapine]", "values": [{"measurement": "tumor regression", "setting": "E.G7-OVA tumor cells; 1.5 or 3.0 mg noscapine/ml of drinking water, continuous", "value": "disappeared and did not return during four months of continuous treatment; also recorded: majority of tumors in mice treated with noscapine regress"}, {"measurement": "survival after tumor inoculation", "setting": "E.G7-OVA tumor cells; majority of mice, 1.5 or 3.0 mg/ml in drinking water from day 3, experiment terminated at 16 weeks", "value": "greater than 16 weeks"}, {"measurement": "M phase arrest of microtubule arrays", "setting": "EL4 thymocytes", "value": "arrested in M phase"}]}
